Activity calls are given as the source filed them. No cut-off for these calls is given here.
What was measured:
[1] = target: Dipeptidyl peptidase IV (Porphyromonas gingivalis) (UniProt O31048); assay: Inhibition of Porphyromonas gingivalis N-terminal His-tagged DPP4 expressed in Escherichia coli at 100 uM using Gly-Pro-p-nitroanilide as substrate relative to control
[2] = target: Dipeptidyl peptidase IV (Porphyromonas gingivalis) (UniProt O31048); assay: Inhibition of Porphyromonas gingivalis N-terminal His-tagged DPP4 expressed in Escherichia coli at 10 uM using Gly-Pro-p-nitroanilide as substrate relative to control
[3] = Selectivity index, ratio of IC50 for human DPP4 to IC50 for Porphyromonas gingivalis N-terminal His-tagged DPP4 expressed in Escherichia coli
Dipeptidyl peptidase IV [4] = target: T1, Dipeptidyl peptidase IV (Porphyromonas gingivalis, UniProt O31048); assay: Inhibition of Porphyromonas gingivalis N-terminal His-tagged DPP4 expressed in Escherichia coli using Gly-Pro-p-nitroanilide as substrate
T1 sequence (O31048 20-723 limits assumed): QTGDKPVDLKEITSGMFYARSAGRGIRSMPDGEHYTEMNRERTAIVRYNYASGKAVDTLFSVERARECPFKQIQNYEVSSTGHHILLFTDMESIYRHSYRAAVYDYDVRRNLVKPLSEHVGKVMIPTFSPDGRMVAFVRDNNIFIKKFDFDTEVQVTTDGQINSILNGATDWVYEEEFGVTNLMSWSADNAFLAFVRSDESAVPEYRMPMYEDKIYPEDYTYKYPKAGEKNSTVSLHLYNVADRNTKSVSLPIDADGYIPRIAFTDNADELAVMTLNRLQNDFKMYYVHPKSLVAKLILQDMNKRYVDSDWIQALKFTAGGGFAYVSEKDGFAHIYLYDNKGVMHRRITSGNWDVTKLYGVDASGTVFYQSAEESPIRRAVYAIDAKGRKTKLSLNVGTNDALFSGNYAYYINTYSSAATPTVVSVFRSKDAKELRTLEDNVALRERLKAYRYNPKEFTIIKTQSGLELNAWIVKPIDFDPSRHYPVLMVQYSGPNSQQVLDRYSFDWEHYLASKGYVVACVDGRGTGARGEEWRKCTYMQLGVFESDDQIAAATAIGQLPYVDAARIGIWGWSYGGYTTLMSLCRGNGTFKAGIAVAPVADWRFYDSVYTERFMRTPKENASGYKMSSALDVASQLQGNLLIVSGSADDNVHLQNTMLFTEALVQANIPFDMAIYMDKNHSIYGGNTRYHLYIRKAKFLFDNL

Dipeptidyl peptidase 9 = Dipeptidyl peptidase 9 (Bos taurus, UniProt E1BI31); assay: Inhibition of bovine DPP9
Sequence of Dipeptidyl peptidase 9 (E1BI31 whole entry): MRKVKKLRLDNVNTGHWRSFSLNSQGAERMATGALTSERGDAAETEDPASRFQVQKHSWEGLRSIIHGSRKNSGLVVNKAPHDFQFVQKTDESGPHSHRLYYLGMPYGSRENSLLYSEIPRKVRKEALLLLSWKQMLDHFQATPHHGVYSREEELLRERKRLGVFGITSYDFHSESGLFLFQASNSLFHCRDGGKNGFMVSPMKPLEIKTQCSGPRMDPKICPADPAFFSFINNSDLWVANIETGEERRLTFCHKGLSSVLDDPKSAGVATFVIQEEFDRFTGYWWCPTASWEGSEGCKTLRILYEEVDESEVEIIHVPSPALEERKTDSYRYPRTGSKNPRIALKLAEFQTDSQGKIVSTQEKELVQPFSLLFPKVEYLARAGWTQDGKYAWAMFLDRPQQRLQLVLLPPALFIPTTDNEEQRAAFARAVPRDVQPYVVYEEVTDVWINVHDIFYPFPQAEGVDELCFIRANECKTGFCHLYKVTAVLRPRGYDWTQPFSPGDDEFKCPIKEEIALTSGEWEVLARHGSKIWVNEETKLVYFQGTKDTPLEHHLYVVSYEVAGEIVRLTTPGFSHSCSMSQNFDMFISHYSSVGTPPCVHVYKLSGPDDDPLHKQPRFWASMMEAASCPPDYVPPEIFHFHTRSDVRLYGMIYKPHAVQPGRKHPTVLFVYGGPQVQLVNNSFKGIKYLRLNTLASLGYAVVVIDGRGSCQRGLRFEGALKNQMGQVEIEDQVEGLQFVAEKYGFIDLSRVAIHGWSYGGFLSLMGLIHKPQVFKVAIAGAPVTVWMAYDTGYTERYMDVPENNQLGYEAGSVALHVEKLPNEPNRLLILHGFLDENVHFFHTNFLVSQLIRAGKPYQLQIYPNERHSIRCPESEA

Dipeptidyl peptidase IV [5] = target: T1, Dipeptidyl peptidase IV; assay: Inhibition of Porphyromonas gingivalis N-terminal His-tagged DPP4 expressed in Escherichia coli using Gly-Pro-p-nitroanilide as substrate preincubated for 15 mins
[6] = target: Dipeptidyl peptidase IV (Porphyromonas gingivalis) (UniProt O31048); assay: Inhibition of Porphyromonas gingivalis N-terminal His-tagged DPP4 expressed in Escherichia coli using Gly-Pro-p-nitroanilide as substrate after 1 hr

Sequence of Dipeptidyl peptidase IV (Porphyromonas gingivalis) (O31048 20-723 limits assumed): as the sequence (O31048 20-723 limits assumed) above

| Structure (SMILES) | inhibition [1] | inhibition [2] | Ratio IC50 [3] | IC50 (Dipeptidyl peptidase IV [4]; read-out: IC50) | IC50 (Dipeptidyl peptidase 9) | Ki (Dipeptidyl peptidase IV [5]) | inhibition [6] | IC50 (Dipeptidyl peptidase IV [4]) |
| --- | --- | --- | --- | --- | --- | --- | --- | --- |
| NC(CC(=O)N1CCN(C(c2ccccc2)c2ccc(Cl)cc2)CC1)C(=O)N1Cc2ccc(F)cc2C1 (stereo not drawn) | < 50% | > 50% | > 5.9 | 17 µM |  |  |  |  |
| CCC(C)C(N)C(=O)N1CCCC1 (stereo not drawn) | < 50% | > 50% | 0.18 | 22 µM |  |  |  |  |
| N#C[C@@H]1C[C@H](N=[N+]=[N-])CN1C(=O)[C@@H](N)CCC(=O)N1CCNCC1 | < 50% | > 50% | 1.2 | 0.48 µM |  |  |  |  |
| CC[C@H](C)[C@H](N)C(=O)N1C[C@@H](N=[N+]=[N-])C[C@H]1C#N | < 50% | > 50% | 1.1 | 0.31 µM |  |  |  |  |
| NCCCCC(N)C(=O)N1CCSC1 (stereo not drawn) | < 50% | > 50% | 0.09 | 19 µM |  |  |  |  |
| CC1CC(N=[N+]=[N-])CN1C(=O)C(N)CCC(=O)N1CCN(C(c2ccc(F)cc2)c2ccc(F)cc2)CC1 (stereo not drawn) | < 50% | > 50% | 0.25 | 8 µM |  |  |  |  |
| N#C[C@@H]1CCCN1C(=O)CNC12CC3CC(CC(O)(C3)C1)C2 [VILDAGLIPTIN] |  | > 50% |  | 1.3 µM |  | 17 nM | Active |  |
| CC#CCn1c(N2CCC[C@@H](N)C2)nc2c1c(=O)n(Cc1nc(C)c3ccccc3n1)c(=O)n2C [LINAGLIPTIN] | < 50% | > 50% |  |  | > 100 µM |  |  | IC50 10-100 uM |
| N#C[C@@H]1C[C@H](N=[N+]=[N-])CN1C(=O)[C@@H](N)CCCCNCc1ccc2ccccc2c1 | < 50% | > 50% | 7.04 to 7.1 | 0.079 µM |  |  | Active |  |
| N#C[C@@H]1C[C@H](N=[N+]=[N-])CN1C(=O)[C@@H](N)CCCCN | < 50% | > 50% | 6.58 to 6.7 | 0.33 µM |  |  |  |  |
| CC[C@@H](C)[C@H](N)C(=O)N1C[C@@H](N=[N+]=[N-])C[C@H]1C#N | < 50% | > 50% | 1.26 to 1.3 | 0.23 µM |  |  | Active |  |
| CC1CC(N=[N+]=[N-])CN1C(=O)C(N)CCC(=O)N1CCN(Cc2ccc(F)cc2)CC1 (stereo not drawn) | < 50% | > 50% | 0.425 | 2.4 µM |  |  |  |  |
| CC#CCn1c(N2CCNCC2)nc2c1c(=O)n(Cc1nc(C)c3ccccc3n1)c(=O)n2C | < 50% | > 50% | < 0.002 |  |  |  |  | IC50 10-100 uM |
| N#C[C@@H]1CCCN1C(=O)[C@@H](N)CCCCN | < 50% | > 50% | 0.16 to 0.2 | 1.6 µM |  |  |  |  |
| NC(CC(=O)N1CCN(C(c2ccc(F)cc2)c2ccc(F)cc2)CC1)C(=O)N1Cc2ccccc2C1 (stereo not drawn) | < 50% | > 50% |  |  |  |  |  | IC50 10-100 uM |
| CCC(C)C(N)C(=O)N1CC=CC1 (stereo not drawn) | < 50% | > 50% |  |  |  |  |  | IC50 10-100 uM |
| CC1CCN(C(=O)C(N)CC(=O)N2CCN(C(c3ccc(F)cc3)c3ccc(F)cc3)CC2)C1 (stereo not drawn) | < 50% | > 50% |  |  |  |  |  | IC50 10-100 uM |
| CC(O)C(N)C(=O)N1CCCC1 (stereo not drawn) | < 50% | > 50% |  | 100 µM |  |  |  |  |
| CC[C@H](C)[C@H](N)C(=O)N1CCC(F)C1 (stereo partly drawn) | < 50% | > 50% |  |  |  |  |  | IC50 10-100 uM |
| N[C@@H](CC(=O)N1CCn2c(nnc2C(F)(F)F)C1)Cc1cc(F)c(F)cc1F [SITAGLIPTIN] | < 50% | > 50% |  | 18 µM |  |  |  |  |
| NC(CC(=O)N1CCN(C(c2ccc(F)cc2)c2ccc(F)cc2)CC1)C(=O)N1Cc2ccc(F)cc2C1 (stereo not drawn) | < 50% | > 50% | 2.7 | 22 µM |  |  |  |  |
| CCC(C)C(N)C(=O)N1Cc2ccccc2C1 (stereo not drawn) | < 50% | > 50% |  |  |  |  |  | IC50 10-100 uM |
| N[C@@H](CC(=O)N1CCN(C(c2ccc(F)cc2)c2ccc(F)cc2)CC1)C(=O)N1CCCCC1 | < 50% | > 50% |  |  |  |  |  | IC50 10-100 uM |
| N#C[C@@H]1C[C@H](N=[N+]=[N-])CN1C(=O)[C@@H](N)CCC(=O)NCCN | < 50% | > 50% | 0.5 | 0.8 µM |  |  |  |  |
| C=C1CCN(C(=O)C(N)CC(=O)N2CCN(C(c3ccc(F)cc3)c3ccc(F)cc3)CC2)C1 (stereo not drawn) | < 50% | > 50% |  |  |  |  |  | IC50 10-100 uM |
| NC(CC(=O)N1CCN(C(c2ccc(F)cc2)c2ccc(F)cc2)CC1)C(=O)N1CCC(C(F)(F)F)C1 (stereo not drawn) | < 50% | > 50% |  |  |  |  |  | IC50 10-100 uM |
| CC(C)[C@H](N)C(=O)N1CCCC1B(O)O (stereo partly drawn) | < 50% | > 50% |  | 0.14 µM |  |  |  |  |
| CCC(C)C(N)C(=O)N1CCC(N=[N+]=[N-])C1 (stereo not drawn) | < 50% | > 50% |  |  |  |  |  | IC50 10-100 uM |

The next lines start with the values.

| inhibition [1] | inhibition [2] | Ratio IC50 [3] | IC50 (Dipeptidyl peptidase IV [4]; read-out: IC50) | IC50 (Dipeptidyl peptidase 9) | Ki (Dipeptidyl peptidase IV [5]) | inhibition [6] | IC50 (Dipeptidyl peptidase IV [4]) | Structure (SMILES) |
| --- | --- | --- | --- | --- | --- | --- | --- | --- |
| < 50% | > 50% | 0.88 | 3.4 µM |  |  |  |  | NC(CCCCN(Cc1ccccc1)Cc1ccccc1)C(=O)N1CCCC1 (stereo not drawn) |
|  | > 50% |  | > 100 µM | 76.6 µM |  |  |  | N[C@@H](CCNCc1ccc(Cl)cc1)C(=O)N1CCCCC1 |
| < 50% | > 50% | 1.2 | 3.5 µM |  |  |  |  | NC(CCCCN(Cc1ccc2ccccc2c1)Cc1ccc2ccccc2c1)C(=O)N1CCCC1 (stereo not drawn) |
| < 50% | > 50% | 0.7 to 0.71 | 22 µM |  |  |  |  | N[C@@H](CCCCNC(=O)OCc1ccccc1)C(=O)N1CCCC1 |
| < 50% | > 50% | 0.17 | 22 µM |  |  |  |  | NC(CCCCNC(=O)OCc1ccccc1)C(=O)N1CCSC1 (stereo not drawn) |
| < 50% | > 50% | > 4.5 | 11 µM |  |  |  |  | NC(CCCCNCc1ccccc1)C(=O)N1Cc2ccccc2C1 (stereo not drawn) |
| < 50% | > 50% |  |  |  |  |  | IC50 10-100 uM | NC(CCCCN(Cc1ccccc1)Cc1ccccc1)C(=O)N1Cc2ccccc2C1 (stereo not drawn) |
| < 50% | > 50% | 1.2 | 3.1 µM |  |  |  |  | NC(CCCCNCc1ccccc1)C(=O)N1CCCC1 (stereo not drawn) |
| < 50% | > 50% |  |  |  |  |  | IC50 10-100 uM | CCCCC(N)C(=O)N1CCCC1 (stereo not drawn) |
| < 50% | > 50% |  |  |  |  |  | IC50 10-100 uM | NC(CCCCNC(=O)Nc1ccccc1)C(=O)N1CCCC1 (stereo not drawn) |
| < 50% | > 50% |  |  |  |  |  | IC50 10-100 uM | NC(CCCNC(=O)OCc1ccccc1)C(=O)N1CCCC1 (stereo not drawn) |
| < 50% | > 50% | 1.76 to 1.8 | 0.3 µM |  |  | Active |  | N#C[C@@H]1C[C@H](N=[N+]=[N-])CN1C(=O)[C@@H](N)CCCCNC(=O)OCc1ccccc1 |
| < 50% | > 50% |  |  |  |  |  | IC50 10-100 uM | N=C(N)NCCCC(N)C(=O)N1CCCC1 (stereo not drawn) |
| < 50% | > 50% | 0.02 | 1.5 µM |  |  |  |  | N#C[C@@H]1CCCN1C(=O)[C@@H](N)CCCCNC(=O)OCc1ccccc1 |
| < 50% | > 50% | 0.52 | 9.4 µM |  |  |  |  | CNCCCCC(N)C(=O)N1CCCC1 (stereo not drawn) |
| < 50% | > 50% |  |  |  |  |  | IC50 10-100 uM | Cc1ccc(S(=O)(=O)NCCCCC(N)C(=O)N2CCCC2)cc1 (stereo not drawn) |
| < 50% | > 50% |  |  |  |  |  | IC50 10-100 uM | CN(CCCCC(N)C(=O)N1CCCC1)Cc1ccccc1 (stereo not drawn) |

Reference: ChEMBL document CHEMBL4130390, “Crystal structure of Porphyromonas gingivalis dipeptidyl peptidase 4 and structure-activity relationships based on inhibitor profiling” (Eur J Med Chem, 2017)
